Data: BindingDB's records for doi:10.7270/Q2CV4GM1 (D3R/Abbott, 2015)
Values joined by “and” are separate entries in the source; they are usually repeats but may differ in a detail not shown here. Equal entries are not always repeated.

Biological target: T1, Tyrosine-protein kinase SYK [355-635] (Homo sapiens, UniProt P43405)
T1 construct: 355-635
Test: SYK assay_HTRF

Row | SMILES | IC50
1 | Cc1ncoc1-c1ccc(Nc2nccc(Nc3cccc4[nH]ncc34)n2)cc1 [GTC000163A] | 149 nM and 221 nM
2 | NC(=O)c1cccc(Nc2nccc(N(CCO)c3cccc4[nH]ncc34)n2)c1 [GTC000281A] | 7.19 nM
3 | OCCCCN(c1ccnc(Nc2ccc3nn[nH]c3c2)n1)c1cccc2[nH]ncc12 [GTC000275A] | 6.08 nM
4 | CNC(=O)COc1cccc(Nc2nccc(Nc3cccc4[nH]ncc34)n2)c1 [GTC000140A] | 36.3 nM and 45.7 nM and 37.4 nM and 80.7 nM
5 | CCN(c1nc(Nc2ccc3cn[nH]c3c2)ncc1Cl)c1cccc2[nH]ncc12 [GTC000328A] | 15.2 nM and 29.6 nM and 50.5 nM and 12.2 nM
6 | NC(=O)c1cccc(Nc2nccc(Nc3cccc4[nH]ncc34)n2)c1 [3-{[4-(1H-indazol-4-ylamino)pyrimidin-2-yl]amino}benzamide] | 533 nM
7 | O=C(Cc1ccc(Nc2nccc(Nc3cccc4[nH]ncc34)n2)cc1)Nc1cccc(Cl)c1 [GTC000213A] | 1390 nM
8 | CCN(c1nc(Nc2ccc(CCO)cc2)ncc1F)c1cccc2[nH]ncc12 [GTC000333A] | 27.3 nM
9 | c1cc(Nc2ccnc(Nc3ccc4oncc4c3)n2)c2cn[nH]c2c1 [GTC000160A] | 48.4 nM and 76 nM
10 | O=S1(=O)NCc2ccc(Nc3nccc(N(CCO)c4cccc5[nH]ncc45)n3)cc21 [GTC000223A] | 3.45 nM
11 | CCN(c1nc(Nc2cccc(-c3noc(C)n3)c2)ncc1F)c1cccc2[nH]ncc12 [GTC000320A] | 21.4 nM
12 | NCCCCN(c1ccnc(Nc2ccc3[nH]c(=O)[nH]c3c2)n1)c1cccc2[nH]ncc12 [GTC000280A] | 7.4 nM
13 | CCN(C(C)=O)c1ccc(Nc2nccc(Nc3cccc4[nH]ncc34)n2)cc1 [GTC000172A] | 589 nM
14 | NS(=O)(=O)c1cccc(Nc2nccc(N(CCCO)c3cccc4[nH]ncc34)n2)c1 [GTC000259A] | 5.02 nM
15 | COC(=O)COc1ccc(Nc2nccc(Nc3cccc4[nH]ncc34)n2)cc1 [GTC000199A] | 490 nM
16 | CCN(c1nc(Nc2ccc3c(c2)S(=O)(=O)CC3)ncc1F)c1cccc2[nH]ncc12 [GTC000277A] | 7.19 nM and 7.62 nM
17 | O=C(Cc1ccc(Nc2nccc(Nc3cccc4[nH]ncc34)n2)cc1)Nc1ccc(C(F)(F)F)cc1 [GTC000211A] | 2930 nM
18 | COCCCN(c1nc(Nc2ccc3nn[nH]c3c2)ncc1F)c1cccc2[nH]ncc12 [GTC000336A] | 25.6 nM
19 | COc1ccc(Nc2nccc(Nc3cccc4[nH]ncc34)n2)cc1Cl [GTC000141A] | 140 nM and 145 nM and 284 nM and 612 nM
20 | O=S(=O)(Cc1ccc(Nc2nccc(Nc3cccc4[nH]ncc34)n2)cc1)NCCCO [GTC000203A] | 746 nM

Row | SMILES | IC50
21 | CCN(CC)C(=O)c1ccc(Nc2nccc(Nc3cccc4[nH]ncc34)n2)cc1 [GTC000150A] | 315 nM
22 | c1cc(Nc2nccc(Nc3cccc4[nH]ncc34)n2)cc(-c2ccsc2)c1 [GTC000137A] | 94.2 nM and 162 nM and 160 nM and 353 nM
23 | O=S1(=O)NCc2ccc(Nc3nccc(N(CCCCO)c4cccc5[nH]ncc45)n3)cc21 [GTC000241A] | 2.9 nM
24 | c1cc(Nc2ccnc(Nc3ccc(-c4cnco4)cc3)n2)c2cn[nH]c2c1 [GTC000165A] | 119 nM and 180 nM and 340 nM and 202 nM
25 | CCN(c1nc(Nc2ccc3ncsc3c2)ncc1F)c1cccc2[nH]ncc12 [GTC000325A] | 10.1 nM and 55.7 nM and 29.3 nM
26 | CC1(C)Oc2ccc(Nc3nccc(Nc4cccc5[nH]ncc45)n3)cc2NC1=O [GTC000145A] | 38.6 nM and 153 nM
27 | CCN(c1nc(Nc2ccc3nn[nH]c3c2)ncc1F)c1cccc2[nH]ncc12 [GTC000267A] | 6.27 nM
28 | NC(=O)COc1ccc(Nc2nccc(Nc3cccc4[nH]ncc34)n2)cc1 [GTC000196A] | 227 nM
29 | CNC(=O)CN(c1nc(Nc2ccc3c(c2)S(=O)(=O)CC3)ncc1F)c1cccc2[nH]ncc12 [GTC000367A] | 81.5 nM and 174 nM and 157 nM and 171 nM
30 | O=C(O)COc1ccc(Nc2nccc(Nc3cccc4[nH]ncc34)n2)cc1 [GTC000198A] | 326 nM
31 | NS(=O)(=O)c1cccc(Nc2nccc(N(CCCCO)c3cccc4[nH]ncc34)n2)c1 [GTC000356A] | 59.3 nM
32 | CCN(c1nc(Nc2ccc3c(c2)[nH]c(=O)n3C)ncc1F)c1cccc2[nH]ncc12 [GTC000283A] | 8.13 nM
33 | O=S1(=O)CCc2ccc(Nc3ncc(F)c(N(CCO)c4cccc5[nH]ncc45)n3)cc21 [GTC000254A] | 4.75 nM
34 | Cc1ncoc1-c1cccc(Nc2ncc(F)c(N(C)c3cccc4[nH]ncc34)n2)c1 [GTC000316A] | 16.4 nM
35 | O=S1(=O)Cc2ccc(Nc3nccc(Nc4cccc5[nH]ncc45)n3)cc2C1 [GTC000147A] | 60.5 nM and 109 nM
36 | CCN(c1nc(Nc2ccc3[nH]c(=O)n(C)c3c2)ncc1F)c1cccc2[nH]ncc12 [GTC000321A] | 21.2 nM
37 | CCN(c1nc(Nc2ccc3c(c2)COC(=O)N3)ncc1F)c1cccc2[nH]ncc12 [GTC000268A] | 6.76 nM
38 | NCCCCCN(c1ccnc(Nc2ccc3c(c2)S(=O)(=O)NC3)n1)c1cccc2[nH]ncc12 [GTC000244A] | 3 nM and 3.31 nM and 5.53 nM
39 | c1cc(Nc2ccnc(Nc3ccc4c(c3)CCO4)n2)c2cn[nH]c2c1 [GTC000111A] | 222 nM
40 | O=S(=O)(Cc1cccc(Nc2nccc(Nc3cccc4[nH]ncc34)n2)c1)NCCCO [GTC000193A] | 575 nM

Row | SMILES | IC50
41 | O=S(=O)(Nc1ccccn1)c1ccc(Nc2nccc(Nc3cccc4[nH]ncc34)n2)cc1 [GTC000191A] | 673 nM and 571 nM
42 | CN(c1nc(Nc2ccc3nn[nH]c3c2)ncc1F)c1cccc2[nH]ncc12 [GTC000265A] | 5.6 nM
43 | N#Cc1cccc(Nc2nccc(Nc3cccc4[nH]ncc34)n2)c1 [GTC000131A] | 62.4 nM and 70.5 nM
44 | COc1ccc(NC(=O)Cc2ccc(Nc3nccc(Nc4cccc5[nH]ncc45)n3)cc2)cc1 [GTC000208A] | 849 nM
45 | CCN(c1nc(Nc2cccc(N3CCN(C)CC3)c2)ncc1F)c1cccc2[nH]ncc12 [GTC000331A] | 23.8 nM
46 | c1cc(Nc2ccnc(Nc3ccc4nn[nH]c4c3)n2)c2cn[nH]c2c1 [GTC000112A] | 52.8 nM and 79.8 nM
47 | COCCN(c1ccnc(Nc2ccc3cnn(C)c3c2)n1)c1cccc2[nH]ncc12 [GTC000313A] | 16.6 nM
48 | O=S1(=O)NCc2cc(Nc3nccc(Nc4cccc5[nH]ncc45)n3)ccc21 [GTC000153A] | 42.2 nM and 85.9 nM and 54.1 nM
49 | COCCCN(c1ccnc(Nc2ccc3nn[nH]c3c2)n1)c1cccc2[nH]ncc12 [GTC000257A] | 5.04 nM
50 | CN(c1nc(Nc2cccc(C(N)=O)c2)ncc1F)c1cccc2[nH]ncc12 [GTC000366A] | 110 nM
51 | CCN(CC)CCCN(c1ccnc(Nc2ccc3c(c2)C(=O)NS3(=O)=O)n1)c1cccc2[nH]ncc12 [GTC000332A] | 23.9 nM
52 | O=C(O)c1cccc(Nc2nccc(Nc3cccc4[nH]ncc34)n2)c1 [GTC000119A] | 207 nM
53 | Cc1noc(NS(=O)(=O)Cc2ccc(Nc3nccc(Nc4cccc5[nH]ncc45)n3)cc2)c1C [GTC000200A] | 887 nM and 1810 nM
54 | CC(=O)N(C)c1ccc(Nc2nccc(Nc3cccc4[nH]ncc34)n2)cc1 [GTC000175A] | 793 nM
55 | COCCCN(c1ccnc(Nc2ccc3[nH]c(=O)[nH]c3c2)n1)c1cccc2[nH]ncc12 [GTC000246A] | 3.6 nM
56 | Cc1noc(NS(=O)(=O)c2ccc(Nc3nccc(Nc4cccc5[nH]ncc45)n3)cc2)c1C [GTC000187A] | 1380 nM and 971 nM
57 | CCN(c1nc(Nc2ccc3c(c2)C(=O)N(C)C3)ncc1F)c1cccc2[nH]ncc12 [GTC000353A] | 32.5 nM and 109 nM
58 | c1cc(Nc2nccc(Nc3cccc4[nH]ncc34)n2)cc(-c2cc[nH]n2)c1 [GTC000126A] | 22.3 nM and 41.9 nM
59 | O=c1[nH]c2ccc(Nc3ncc(F)c(N(CCCO)c4cccc5[nH]ncc45)n3)cc2[nH]1 [GTC000262A] | 5.09 nM
60 | CCN(c1nc(Nc2cccc(S(=O)(=O)NC3CC3)c2)ncc1F)c1cccc2[nH]ncc12 [GTC000342A] | 33.8 nM
